In patent EP4635976A1, “CONSTANT UNI-TABS” (Medigene Immunotherapies GmbH, priority 2024, dated 2025):
Marks after values point to notes of the source that are not given here.

What was measured:
Experiment in all cases: Peptide mismatched library: peptide-loaded T2 cells co-cultured with TCR-transduced CD8+ T cells, IFN-γ-ELISA
Format in all cases: cell-based
[1] = test system: WT NY-ESO_PD1-41 BB TCR ("SWAT"); details: for IFN-γ [pg/ml production] MIT 045 SWAT: donor MIT045; for IFN-γ [pg/ml production] MIT 045 SWAT / IFN-γ [pg/ml production] MIT038 SWAT: CD8^+ T cells transduced with WT NY-ESO_PD1-41 BB TCR (SWAT), mismatch peptide loaded on T2 cells, IFNg-ELISA; for IFN-γ [pg/ml production] MIT038 SWAT: donor MIT038
Description: (§1) The aim was to further compare the WT NY-ESO-1 with two UNI-TABS NY-ESO-TCRs (Position A199 in loop 1 and A245 in loop 2) in combination with PD1_41 BB regarding allogeneic HLA cross-recognition and HLA fine typing.
(§2) To test a peptide mismatched library, 336 different mismatched peptides, differing from 1-4 amino acids from the wild-type peptide recognized by the WT TCR were loaded on T2 cells and co-cultured with CD8^+ T cell transduced with either wt NY-ESO_PD1-41 BB TCR, NY-ESO-UniTABS-A199_PD1-41 BB TCR or NY-ESO-UniTABS-A245_PD1-41 BB TCR. The culture supernatant was collected, and an IFN-γ-ELISA performed.
(§3) The sequences and the numbers of the respective mismatch peptides are listed. The cells contain the values of IFN-γ [pg/ml production]. BetaA199: UniTAB epitope set forth in SEQ ID NO: 47 inserted in loop1 at position A199 flanked by GSG linker sequences, BetaA245: UniTAB epitope set forth in SEQ ID NO: 47 inserted in loop 2 at position A245 flanked by GSG linker sequences. Table 2: Mismatched peptides recognized by NY-ESO WT and NY-ESO variants

[2] = test system: NY-ESO-A199_PD1-41 BB TCR (UniTAB1); details: CD8^+ T cells transduced with NY-ESO-A199_PD1-41 BB TCR (UniTAB1), mismatch peptide loaded on T2 cells, IFNg-ELISA; for IFN-γ [pg/ml production] MIT038 UniTABs-A199: donor MIT038
Description: as §1, §2, §3

[3] = test system: NY-ESO-A245_PD1-41 BB TCR (UniTAB2); details: donor MIT045; CD8^+ T cells transduced with NY-ESO-A245_PD1-41 BB TCR (UniTAB2); mismatch peptide loaded on T2 cells; IFNg-ELISA
Description: as §1, §2, §3

Sequence | recognition of mismatched peptide (IFN-γ response) ([1]; WT TCR-PD1-41BB transduced T cells, two donors) | IFN-γ [pg/ml production] MIT 045 SWAT [1] | IFN-γ [pg/ml production] MIT038 UniTABs-A199 [2] | IFN-γ [pg/ml production] MIT 045 UniTABs-A199 ([2]; donor MIT045) | IFN-γ [pg/ml production] MIT038 SWAT [1] | IFN-γ [pg/ml production] MIT 045 UniTABs-A245 [3]
ICLQWITQC [compound 8] | only recognized by WT TCR transduced T cells of one donor | 24.7**** pg/ml |  |  |  | 
NLLFWICGC [compound 221] |  | 100.6* pg/ml | 900.2* pg/ml | 889.3* pg/ml | 788.9* pg/ml | 0.0* pg/ml
SLLCYIKHC [compound 239] |  | 32.1** pg/ml | 312.2** pg/ml |  | 228.6** pg/ml | 
